Assay results reported in article PMC11571207, “Stereorandomized Oncocins with Preserved Ribosome Binding and Antibacterial Activity” (Journal of Medicinal Chemistry, 2024).
≈ marks a conversion by molar mass, not a printed value. Where two headings read alike, the source gives them in different places. No end group written: not given here.

How the values were obtained:
S. aureus COL (MRSA) = assay: microbe, parasite or virus in culture; settings: for MIC: Staphylococcus aureus, MRSA; for MIC S. aureus COL (MRSA): supplement CSV
Procedure, shortened: (§1)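 Read-out was visible growth after MTT addition, the MIC being the lowest inhibitory peptide concentration. Bacteria grown to log phase in LB were exposed in MH medium to peptide from 64 μg/mL in twofold dilutions for 15-18h at 37°C.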

A. baumannii ATCC19606 = assay: microbe, parasite or virus in culture; settings: for MIC: Acinetobacter baumannii; for MIC A. baumannii ATCC19606: supplement CSV
Procedure, shortened: as §1

E. coli W3110 = assay: microbe, parasite or virus in culture; settings: for MIC: Escherichia coli; for MIC E. coli W3110: supplement CSV
Procedure, shortened: as §1

K. pneumoniae NCTC 418 = assay: microbe, parasite or virus in culture; settings: for MIC: Klebsiella pneumoniae; for MIC K. pneumoniae NCTC418: supplement CSV
Procedure, shortened: as §1

P. aeruginosa PAO1 = assay: microbe, parasite or virus in culture; settings: for MIC: Pseudomonas aeruginosa; for MIC P. aeruginosa PAO1: supplement CSV
Procedure, shortened: as §1

[1] = system: P. aeruginosa PA14 4.18 (pmrB); settings: for MIC P. aeruginosa PA14 4.18: supplement CSV
human red blood cells = assay: Hemolysis assay, minimum hemolytic concentration

`CC[C@H]1OC(=O)[C@H](C)[C@@H](O[C@H]2C[C@@](C)(OC)[C@@H](O)[C@H](C)O2)[C@H](C)[C@@H](O[C@@H]2O[C@H](C)C[C@H](N(C)C)[C@H]2O)[C@](C)(O)C[C@@H](C)CN(C)[C@H](C)[C@@H](O)[C@]1(C)O` [AZM, azithromycin, reference compound] was tested, and the MIC (S. aureus COL (MRSA); pH 7.4, read-out: MIC S. aureus COL (MRSA)) was under 0.5 µg/mL, the MIC (S. aureus COL (MRSA); read-out: MIC S. aureus, 12.5% MHB) was under 0.5 µg/mL and the MIC (S. aureus COL (MRSA); read-out: MIC S. aureus, Full MHB) was under 0.5 µg/mL. For the same compound, the “MIC S. aureus COL (MRSA)” value (S. aureus COL (MRSA); 12.5% MH pH 7.4) was under 0.5 µg/mL, the MIC (A. baumannii ATCC19606; ATCC19606, pH 7.4, read-out: MIC A. baumannii ATCC19606, supplement CSV, 12.5% MH pH 7.4) was 32 µg/mL (≈ 42.7 µM) and the MIC (A. baumannii ATCC19606; ATCC19606, pH 7.4, read-out: MIC A. baumannii ATCC19606, supplement CSV, full MH pH 7.4) was 4 µg/mL (≈ 5.34 µM). For the same compound, the MIC (A. baumannii ATCC19606; ATCC19606, read-out: MIC A. baumannii, 12.5% MHB, A. baumannii ATCC19606, 12.5% Müller–Hinton medium, 16–20 h at 37 °C) was 32 µg/mL (≈ 42.7 µM), the MIC (A. baumannii ATCC19606; ATCC19606, read-out: MIC A. baumannii, Full MHB, A. baumannii ATCC19606, full Müller–Hinton medium, 16–20 h at 37 °C) was 4 µg/mL (≈ 5.34 µM) and the MIC (E. coli W3110; W3110, pH 7.4, read-out: MIC E. coli W3110, supplement CSV, 12.5% MH pH 7.4) was 2 µg/mL (≈ 2.67 µM). It also gave an MIC (E. coli W3110; W3110, pH 7.4, read-out: MIC E. coli W3110, supplement CSV, full MH pH 7.4) of under 0.5 µg/mL, an MIC (E. coli W3110; W3110, read-out: MIC E. coli, 12.5% MHB, E. coli W3110, 12.5% Müller–Hinton medium, 16–20 h at 37 °C, broth microdilution) of 2 µg/mL (≈ 2.67 µM) and an MIC (E. coli W3110; W3110, read-out: MIC E. coli, Full MHB, E. coli W3110, full Müller–Hinton medium, 16–20 h at 37 °C, broth microdilution) of under 0.5 µg/mL. For the same compound, the MIC (K. pneumoniae NCTC 418; NCTC418, pH 7.4, read-out: MIC K. pneumoniae NCTC418, supplement CSV, 12.5% MH pH 7.4) was 1 µg/mL (≈ 1.34 µM), the MIC (K. pneumoniae NCTC 418; NCTC418, pH 7.4, read-out: MIC K. pneumoniae NCTC418, supplement CSV, full MH pH 7.4) was under 0.5 µg/mL and the MIC (K. pneumoniae NCTC 418; NCTC418, read-out: MIC K. pneumoniae, 12.5% MHB, K. pneumoniae NCTC 418, 12.5% Müller–Hinton medium, 16–20 h at 37 °C) was 1 µg/mL (≈ 1.34 µM). For the same compound, the MIC (K. pneumoniae NCTC 418; NCTC418, read-out: MIC K. pneumoniae, Full MHB, K. pneumoniae NCTC 418, full Müller–Hinton medium, 16–20 h at 37 °C) was under 0.5 µg/mL, the MIC (P. aeruginosa PAO1; PAO1, pH 7.4, read-out: MIC P. aeruginosa PAO1) was 32 µg/mL (≈ 42.7 µM) and the MIC (P. aeruginosa PAO1; PAO1, read-out: MIC P. aeruginosa, 12.5% MHB) was 32 µg/mL (≈ 42.7 µM). For the same compound, the MIC (P. aeruginosa PAO1; PAO1, read-out: MIC P. aeruginosa, Full MHB) was 32 µg/mL (≈ 42.7 µM), the “MIC P. aeruginosa PAO1” value (P. aeruginosa PAO1; full MH pH 7.4) was 32 µg/mL (≈ 42.7 µM) and the “MIC P. aeruginosa PA14 4.18” value ([1]; full MH pH 7.4) was 32 µg/mL (≈ 42.7 µM).
“VDKPPYLPRPRPPRRIYNR [sr5Cterm-Onc] (VDKPPYLPRPRPPRRIYNR-NH2; also: residues 15-19 stereorandomized (1:1 L/D mixture))” was tested, and the “MIC S. aureus, 12.5% MHB” value (S. aureus COL (MRSA); S. aureus COL (MRSA), 12.5% Müller–Hinton medium, 16–20 h at 37 °C) was over 16 µg/mL, the “MIC S. aureus, Full MHB” value (S. aureus COL (MRSA); S. aureus COL (MRSA), full Müller–Hinton medium, 16–20 h at 37 °C) was over 64 µg/mL and the “MIC S. aureus COL (MRSA)” value (S. aureus COL (MRSA); 12.5% MH pH 7.4) was over 16 µg/mL. The “MIC S. aureus COL (MRSA)” value (S. aureus COL (MRSA); full MH pH 7.4) was over 64 µg/mL, the “MIC A. baumannii, 12.5% MHB” value (A. baumannii ATCC19606; A. baumannii ATCC19606, 12.5% Müller–Hinton medium, 16–20 h at 37 °C) was 4 µg/mL and the “MIC A. baumannii, Full MHB” value (A. baumannii ATCC19606; A. baumannii ATCC19606, full Müller–Hinton medium, 16–20 h at 37 °C) was 32 µg/mL. For the same compound, the “MIC A. baumannii ATCC19606” value (A. baumannii ATCC19606; 12.5% MH pH 7.4) was 4 µg/mL, the “MIC A. baumannii ATCC19606” value (A. baumannii ATCC19606; full MH pH 7.4) was 32 µg/mL and the “MIC E. coli, 12.5% MHB” value (E. coli W3110; E. coli W3110, 12.5% Müller–Hinton medium, 16–20 h at 37 °C, broth microdilution) was 2 µg/mL. For the same compound, the “MIC E. coli, Full MHB” value (E. coli W3110; E. coli W3110, full Müller–Hinton medium, 16–20 h at 37 °C, broth microdilution) was 4 µg/mL, the “MIC E. coli W3110” value (E. coli W3110; 12.5% MH pH 7.4) was 2 µg/mL and the “MIC E. coli W3110” value (E. coli W3110; full MH pH 7.4) was 4 µg/mL. For the same compound, the “MIC K. pneumoniae, 12.5% MHB” value (K. pneumoniae NCTC 418; K. pneumoniae NCTC 418, 12.5% Müller–Hinton medium, 16–20 h at 37 °C) was 2 / 2 μg/mL, the “MIC K. pneumoniae, Full MHB” value (K. pneumoniae NCTC 418; K. pneumoniae NCTC 418, full Müller–Hinton medium, 16–20 h at 37 °C) was 2 / 2 μg/mL and the “MIC K. pneumoniae NCTC418” value (K. pneumoniae NCTC 418; 12.5% MH pH 7.4) was 2 µg/mL. The “MIC K. pneumoniae NCTC418” value (K. pneumoniae NCTC 418; full MH pH 7.4) was 2 µg/mL, the “MIC P. aeruginosa, 12.5% MHB” value (P. aeruginosa PAO1; P. aeruginosa PAO1, 12.5% Müller–Hinton medium, 16–20 h at 37 °C) was 8 µg/mL and the “MIC P. aeruginosa, Full MHB” value (P. aeruginosa PAO1; P. aeruginosa PAO1, full Müller–Hinton medium, 16–20 h at 37 °C) was 64 µg/mL. The “MIC P. aeruginosa PAO1” value (P. aeruginosa PAO1; 12.5% MH pH 7.4) was 8 µg/mL, the “MIC P. aeruginosa PAO1” value (P. aeruginosa PAO1; full MH pH 7.4) was 64 µg/mL and the “MIC P. aeruginosa PA14 4.18 (pmrB), 12.5% MHB” value ([1]; polymyxin B resistant strain, 12.5% MHB pH 7.4, 16–20 h at 37 °C) was 8 µg/mL. For the same compound, the “MIC P. aeruginosa PA14 4.18 (pmrB), full MHB” value ([1]; polymyxin B resistant strain, full MHB pH 7.4, 16–20 h at 37 °C) was 64 µg/mL, the “MIC P. aeruginosa PA14 4.18” value ([1]; 12.5% MH pH 7.4) was 8 µg/mL and the “MIC P. aeruginosa PA14 4.18” value ([1]; full MH pH 7.4) was 64 µg/mL. For the same compound, the “Haemolysis on hRBC, MHC” value (human red blood cells; 2.5% human red blood cells (final) in 10 mM phosphate, 150 mM NaCl, pH 7.4, 25 °C, 4 h, visual inspection) was over 1000 µg/mL and the “MHC human red blood cells” value (human red blood cells; supplement CSV) was over 1000 µg/mL.
